Measurements reported in US5639775A, “4-[4'-piperodinyl or 3'-pirrolidinyl] substituted imidazoles as H3 -receptor antagonists and therapeutic uses thereof” (The University of Toledo, priority 1994, dated 1997).
Where two headings read alike, the source gives them in different places.

Tests used:
male albino CF-1 mice = assay: behavioral effects: sleep induced by (R)α-methylhistamine in mice; type: in vivo
Procedure: The overall strategy to show central nervous system antagonist activity was to challenge effects of the agonist (R)α-methylhistamine. Therefore, the first objective was to establish a dose response curve for behavioral effects of (R)α-methylhistamine. […] Saline or (R)α-methylhistamine in saline was injected i.p. in a volume≤0.4 ml. […] Animals were scored for the presence (1) or absence (0) of the behavior and the results were reported as the accumulated score for a 30 minute period (maximum score=9).
To assess the effects of antagonists, they were administered with the (R)α-methylhistamine in saline.

[1] = type: binding; conditions: 10^-5 M; w-Conotoxin reference
Glycine [2] = assay: NOVASCREEN receptor selectivity assay (inhibitory amino acids); type: binding; conditions: 10^-5 M
Source text: (§1) Bolded values represent inhibition of fifty percent or greater.

Glycine [3] = assay: NOVASCREEN receptor selectivity assay (excitatory amino acids); type: binding; conditions: 10^-5 M
Source text: as §1

[4] = toxicity observed in all testing to date; type: in vivo; conditions: even at high doses
[5] = test system: H3 receptors in the cortex; assay: blood-brain barrier penetration by ex vivo binding of [3H]-Nα-methylhistamine to cortical homogenate of injected rats; type: in vivo, rat
Procedure: Blood-brain barrier penetration in rats was assessed by an ex vivo binding procedure. Young adult male Long-Evans rats were injected i.p. with saline or H3 antagonists in saline. At various times after injection animals were sacrificed, the cortex was removed, homogenized in 50 mM Na/K-phosphate buffer, pH 7.4, and the binding of 1 nM [^3 H]-N^[…] -methylhistamine was measured using 400 μg protein of the homogenate. Nonspecific binding was accounted for by the inclusion of excess thioperamide in some samples. Under these conditions, the binding was approximately 90% specific.

Calcium = assay: NOVASCREEN receptor selectivity assay (channel proteins, Nifedipine reference); type: binding; conditions: 10^-5 M
Source text: as §1

histamine H3 receptor = target: T1, histamine H3 receptor (Rattus norvegicus, UniProt Q9QYN8); assay: inhibition of binding of [3H]-N-alpha-methylhistamine to rat brain membranes; conditions: for IC50: rat brain membranes, 3HNα-methylhistamine as radioligand
T1 construct: from tissue
T1 sequence (Q9QYN8 whole entry): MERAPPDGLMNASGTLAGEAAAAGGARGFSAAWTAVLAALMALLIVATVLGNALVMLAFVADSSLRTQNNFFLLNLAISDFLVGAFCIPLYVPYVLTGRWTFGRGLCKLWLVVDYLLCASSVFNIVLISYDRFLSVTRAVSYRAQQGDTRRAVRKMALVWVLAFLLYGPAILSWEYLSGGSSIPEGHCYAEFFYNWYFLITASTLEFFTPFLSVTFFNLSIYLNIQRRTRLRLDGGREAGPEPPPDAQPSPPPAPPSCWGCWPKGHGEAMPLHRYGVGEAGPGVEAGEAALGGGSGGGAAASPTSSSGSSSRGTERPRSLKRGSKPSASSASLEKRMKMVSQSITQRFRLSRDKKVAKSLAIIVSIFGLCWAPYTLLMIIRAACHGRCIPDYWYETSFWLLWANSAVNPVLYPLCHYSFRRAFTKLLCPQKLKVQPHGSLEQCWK
Procedure: A series of compounds were prepared and tested for their histamine H3 receptor antagonist activity. The antagonist activity of the compounds was detected by observing inhibition of (^3 H)-N-(alpha)methylhistamine activity on rat brain membranes.
The various compounds were tested for the ability to bind to the histamine H3 receptor. A binding assay in a rat brain membrane preparation, based on inhibition of binding of [^3 H]-N-alpha-methylhistamine using excess unlabeled alpha-methylhistamine to account for nonspecifc binding, was developed.

Kainate = conditions: reference compound; cited from earlier work
Glycine [6] = conditions: read-out: Reference Ki; reference compound; inhibitory; cited from earlier work
rats = conditions: cited from earlier work
dogs = conditions: high dose, repeated dose; cited from earlier work
[7] = 2, 5, and 10 mg/kg i.p., 15 min after injection

## C[C@@H](N)Cc1c[nH]cn1 [(R)α-methylhistamine, reference compound]
Male albino CF-1 mice; i.p., one hour after injection, also evident at 30 minutes
  effect on sleeping: dose-dependent (range of 15 to 35 mg/kg) increase in sleeping

## O=C(CCCCC1CCCCC1)N1CCC(c2c[nH]cn2)CC1 [Compound 1, 4-(1-Cyclohexylvaleroyl-4-Piperidyl) 1H-Imidazole]
[1]
  Initial Percent Inhibition (Average; N = 2): 1.9%
Glycine [2]
  Initial Percent Inhibition (Average; N = 2): 17.4%
Glycine [3]
  Initial Percent Inhibition (Average; N = 2): 1.8%
[4]
  toxicity observed: no toxicity
[5]; 50 and 70 mg/kg i.p., one hour after injection
  penetration of the blood-brain barrier: penetrates the blood-brain barrier
[5]; taking into account the difference in affinity
  penetration of the blood-brain barrier compared with thioperamide: at least as well as thioperamide
Male albino CF-1 mice; 25 mg/kg (R)α-methylhistamine
  effect on sleep induced by R(-)-α-methylhistamine: inhibited the soporific effect
Male albino CF-1 mice; in vivo assays
  effectiveness as an H3-receptor antagonist in vivo: effective as an H3 -receptor antagonist
Calcium
  Initial Percent Inhibition (Average; N = 2): 8.1%

## O=C(Cc1ccccc1)N1CCC(c2c[nH]cn2)CC1 [Compound 4]
Histamine H3 receptor; Table I first part, read-out: IC50
  IC50: 1400 ± 437 nM

## O=C(CC12CC3CC(CC(C3)C1)C2)N1CCC(c2cnc[nH]2)CC1 [Compound 8]
Histamine H3 receptor; Table I second part
  IC50: inactive

## O=C(C(C1CCCCC1)C1CCCCC1)N1CCC(c2cnc[nH]2)CC1 [Compound 9]
Histamine H3 receptor; Table I second part
  IC50: inactive

## CC(C)(C)C(=O)N1CCC(c2c[nH]cn2)CC1 [Compound 14]
Histamine H3 receptor; Table I second part
  IC50: inactive

## O=C(C1CCCCC1)N1CCC(c2c[nH]cn2)CC1 [Compound 41]
Histamine H3 receptor; Table I first part
  IC50: inactive

## Cn1cnc(C2CCN(C(=O)c3ccccc3)CC2)c1 [Compound 42]
Histamine H3 receptor; Table I first part
  IC50: inactive

## O=C(c1ccccc1)N1CCC(c2cn(C(=O)c3ccccc3)cn2)CC1 [Compound 43]
Histamine H3 receptor; Table I first part
  IC50: inactive

## CC(C)(C)C(=O)N1CCC(c2cn(C(=O)C(C)(C)C)cn2)CC1 [Compound 44]
Histamine H3 receptor; Table I first part
  IC50: inactive

## CC(C)(C)OC(=O)N1CCC(c2cn(C(=O)OC(C)(C)C)cn2)CC1 [Compound 45]
Histamine H3 receptor; Table I first part
  IC50: inactive

## O=C(c1ccccc1)N1CCC(c2cn(Cc3ccccc3)cn2)CC1 [Compound 46]
Histamine H3 receptor; Table I first part
  IC50: inactive

## N#CN=C(Oc1ccccc1)N1CCC(c2c[nH]cn2)CC1 [Compound 47]
Histamine H3 receptor
  binding to the H3-receptor (in words): ineffective

## N#CN=C(NC1CCCCC1)N1CCC(c2c[nH]cn2)CC1 [Compound 48]
Histamine H3 receptor
  binding to the H3-receptor (in words): ineffective
Histamine H3 receptor; Table I first part
  IC50: inactive

## N#CN=C(Nc1ccc(-c2c[nH]cn2)cc1)NC1CCCCC1 [Compound 50]
Histamine H3 receptor
  binding to the H3-receptor (in words): ineffective
Histamine H3 receptor; Table I second part
  IC50: inactive

## C=C(C)[C@H]1CN[C@H](C(=O)O)[C@H]1CC(=O)O [Kainic Acid]
Kainate
  Ki: 24.9 nM

## O=C1C[C@@H]2OCC=C3CN4CC[C@]56c7ccccc7N1[C@H]5[C@H]2[C@H]3C[C@H]46 [Strychinine Nitrate]
Glycine [6]
  Ki: 33.5 nM

## S=C(NC1CCCCC1)N1CCC(c2cnc[nH]2)CC1 [Thioperamide, reference compound]
rats
  dose needed in vivo to inhibit histamine release from the brain: relatively high doses are required
[5]; [7]
  binding of [3H]-Nα-methylhistamine to H3 receptors in the cortex: decreased the binding
  penetration of the blood-brain barrier: able to penetrate the blood-brain barrier
Male albino CF-1 mice; 30 mg/kg (R)α-methylhistamine
  effect on sleep induced by R(-)-α-methylhistamine: inhibit the soporific effect
Male albino CF-1 mice; in the absence of the α-methylhistamine H3 receptor agonist
  behavior with antagonist alone: very active, exhibiting normal behaviors

## O=C(CCCCC1CCCCC1)N1CCC(c2c[nH]cn2)CC1 [compound 2016]
Male albino CF-1 mice; mice, both drugs administered peripherally
  effect on soporific effect of R(-)-alphamethylhistamine: reverses the soporific effect

## C/N=C(\S)NCCSCc1[nH]cnc1C [metiamide]
dogs
  proportion of dogs that died acutely with pulmonary edema and pleural effusion: < 10%
